Assay results: patent US6413935B1, “Induction of immune response against desired determinants” (priority 1993, dated 2002)
Read-outs that look alike come from different tables or passages of the source. Non-standard residues stand in square brackets, D forms with d. Residues, ends and D or L forms follow the SMILES beside them. No end group written: not given here. Cha = N[C@@H](CC1CCCCC1)C(=O)O

Tests used:
DR4w4 [1] = target: T1, DR4w4 (Homo sapiens, UniProt P01903+P01911, A100K/A169T/F76Y/I96L/K127E/L162R/M171V/N62H/P40V/Q125Y/R42H/S133A/S149N/S66Y/V115G/V209L/W38E); assay: biochemical; settings: PADRE Class II Binding Affinities DR4w4
DR2w2a [2] = target: T2, DR2w2a (Homo sapiens, UniProt P01903+Q30154); assay: biochemical
T2 sequence (P01903 26-254): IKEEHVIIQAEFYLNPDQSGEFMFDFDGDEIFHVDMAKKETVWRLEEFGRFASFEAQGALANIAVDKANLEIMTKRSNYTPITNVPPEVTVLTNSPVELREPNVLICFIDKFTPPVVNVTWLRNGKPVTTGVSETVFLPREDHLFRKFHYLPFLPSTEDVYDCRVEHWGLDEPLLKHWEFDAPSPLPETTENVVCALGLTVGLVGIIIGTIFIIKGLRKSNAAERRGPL
T2 sequence (Q30154 30-266): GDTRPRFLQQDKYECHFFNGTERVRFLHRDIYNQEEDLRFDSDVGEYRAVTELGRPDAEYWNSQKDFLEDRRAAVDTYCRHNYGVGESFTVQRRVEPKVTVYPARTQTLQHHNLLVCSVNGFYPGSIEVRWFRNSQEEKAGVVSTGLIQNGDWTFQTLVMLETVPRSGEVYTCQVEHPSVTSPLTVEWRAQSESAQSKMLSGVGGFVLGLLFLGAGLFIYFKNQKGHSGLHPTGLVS

DRw53 [3] = target: T3, DRw53 (Homo sapiens, UniProt P01903+P13762); assay: biochemical
T3 sequence (P01903 26-254): as the sequence (P01903 26-254) above
T3 sequence (P13762 30-266): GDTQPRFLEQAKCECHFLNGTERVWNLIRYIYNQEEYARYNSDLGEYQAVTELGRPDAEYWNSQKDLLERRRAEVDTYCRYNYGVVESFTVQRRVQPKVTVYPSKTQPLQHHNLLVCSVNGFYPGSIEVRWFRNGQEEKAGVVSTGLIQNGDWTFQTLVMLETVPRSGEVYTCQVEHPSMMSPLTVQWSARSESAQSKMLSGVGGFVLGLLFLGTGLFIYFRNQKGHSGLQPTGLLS

DR3 [4] = target: T4, DR3 (Homo sapiens, UniProt P01903+P01911, A100K/A102G/A103R/A169T/F55Y/I96L/K41T/L162R/M171V/P40S/Q125H/Q178H/Q39Y/R42S/S66N/T106N/T262R/W38E/Y61H); assay: biochemical
human PBMC T cell lines = assay type: cell-based
DR2w2a [5] = target: T2, DR2w2a; settings: read-out: Binding capacity DR2w2a, IC50
DR1 = DR1 (Homo sapiens, UniProt P01903+P01911, A100R/D57E/F55L/F60I/F76Y/I96L/L162R/M171V/P40L/Q125E/R42F/V115G/Y59C); settings: relative to parent 760.57
DR4w4 [6] = target: T1, DR4w4; settings: relative to parent 760.57
DQ3.1 = settings: for IC50: read-out: PADRE Class II Binding Affinities, Table VIII A
DRw53 [7] = target: T3, DRw53; settings: relative to parent 760.57
DR3 [8] = target: T4, DR3; settings: relative to parent 760.57
[9] = read-out: PADRE Class II Binding Affinities DR7, Table VIII A
[10] = read-out: PADRE Class II Binding Affinities DR5, Table VIII A

`CC(C)C[C@H](NC(=O)[C@@H](NC(=O)[C@H](Cc1c[nH]cn1)NC(=O)[C@H](C)NC(=O)[C@H](C)NC(=O)[C@@H](NC(=O)[C@H](CC1CCCCC1)NC(=O)[C@H](CCCCN)NC(=O)[C@@H](C)N)C(C)C)[C@@H](C)O)C(=O)N[C@@H](CCCCN)C(=O)N[C@@H](C)C(=O)N[C@@H](C)C(=O)N[C@H](C)C(N)=O` [Peptide 955.15] showed an IC50 (DR4w4 [1]) of 0.0032 µM, an IC50 (DR2w2a [2]; PADRE Class II Binding Affinities DR2w282, Table IX) of 0.0054 µM and an IC50 (DRw53 [3]) of 0.05 µM. The IC50 (DR3 [4]; PADRE Class II Binding Affinities DR3, Table IX) was 2.5 µM, the “Donors with significant (>10,000 cpm) T cell response / donors tested, second stimulation” value (human PBMC T cell lines) was 2/15 and the “Donors with significant (>10,000 cpm) T cell response / donors tested, third stimulation” value (human PBMC T cell lines) was 4/5.

“YSGPLKAEIAQRLEDV [MT (Y)17-31, reference compound]” gave an IC50 (DR7; read-out: Binding capacity DR7, IC50) of 0.208 µM, an IC50 (DR5; read-out: Binding capacity DR5, IC50) of over 10 µM and an IC50 (DR2w2a [5]) of 0.35 µM.

For `C[C@H](NC(=O)[C@H](C)NC(=O)[C@H](C)NC(=O)[C@H](CC1CCCCC1)NC(=O)[C@H](C)NC(=O)[C@@H](C)N)C(=O)N[C@@H](C)C(=O)N[C@H](C(=O)N[C@@H](CCC(=O)O)C(=O)N[C@@H](CCCCN)C(=O)N[C@@H](C)C(=O)N[C@@H](C)C(=O)N[C@H](C)C(N)=O)[C@@H](C)O` [Peptide 906.30] (H-[dA]A[Cha]AAAATEKAA[dA]-NH2; N-terminus and C-terminus assumed), the “Loss of DR1 binding reactivity” value (DR1) was 8 fold, the IC50 (DR7; [9]) was 0.758 µM and the “Loss of DR7 binding reactivity” value (DR7; relative to parent 760.57) was 10 fold. For the same compound, the “Loss of DR4w4 binding reactivity” value (DR4w4 [6]) was 7 fold, the IC50 (DR5; [10]) was 0.0515 µM and the “Loss of DR5 binding reactivity” value (DR5; relative to parent 760.57) was 10 fold. The IC50 (DQ3.1) was 0.148 µM and the “Increase in DQ3.1 binding reactivity” value (DQ3.1; relative to parent 760.57) was “no reactivity was gained”.

With `CC(C)C[C@H](NC(=O)[C@@H](NC(=O)[C@H](C)NC(=O)[C@H](C)NC(=O)[C@H](C)NC(=O)[C@H](C)NC(=O)[C@H](CC1CCCCC1)NC(=O)[C@H](C)NC(=O)[C@@H](C)N)[C@@H](C)O)C(=O)N[C@@H](CCCCN)C(=O)N[C@@H](C)C(=O)N[C@@H](Cc1ccccc1)C(=O)N[C@H](C)C(N)=O` [Peptide 906.50] (H-[dA]A[Cha]AAAATLKAF[dA]-NH2; N-terminus and C-terminus assumed) the “Increase in DR53 reactivity” value (DRw53 [7]) was 40 fold, the IC50 (DR7; [9]) was 0.0735 µM and the “Increase in DR3 reactivity” value (DR3 [8]) was 8 fold. The IC50 (DR5; [10]) was 0.0095 µM and the IC50 (DQ3.1) was 0.02 µM.

`CC(C)C[C@H](NC(=O)[C@@H](NC(=O)[C@H](Cc1c[nH]c2ccccc12)NC(=O)[C@H](C)NC(=O)[C@H](C)NC(=O)[C@@H](NC(=O)[C@H](CC1CCCCC1)NC(=O)[C@H](CCCCN)NC(=O)[C@H](C)N)C(C)C)[C@@H](C)O)C(=O)N[C@@H](CCCCN)C(=O)N[C@@H](C)C(=O)N[C@@H](C)C(=O)N[C@@H](C)C(N)=O` [Peptide 965.17] showed an IC50 (DR2w2a [2]; PADRE Class II Binding Affinities DR2w282) of 0.0058 µM, an IC50 (DRw53 [3]) of 0.107 µM and an IC50 (DR3 [4]; PADRE Class II Binding Affinities DR3) of 3.21 µM. For the same compound, the “Donors with significant (>10,000 cpm) T cell response / donors tested, second stimulation” value (human PBMC T cell lines) was 2/5 and the “Donors with significant (>10,000 cpm) T cell response / donors tested, third stimulation” value (human PBMC T cell lines) was 4/5.
